From patent US20090163475A1, “CRYSTALLINE FORM OF BENZAZEPINIUM MALEATE DERIVATIVE” (priority 2005, published 2009)

Columns and labels:
[1] = solid-state stability with respect to hygroscopicity / humidity; assay type: physicochemical
[2] = molecular target: T1, serotonin 5-HT2C receptor (Homo sapiens, UniProt P28335); assay: antagonist affinity for serotonin 5-HT2C receptor; assay type: binding
T1 sequence (P28335 33-458): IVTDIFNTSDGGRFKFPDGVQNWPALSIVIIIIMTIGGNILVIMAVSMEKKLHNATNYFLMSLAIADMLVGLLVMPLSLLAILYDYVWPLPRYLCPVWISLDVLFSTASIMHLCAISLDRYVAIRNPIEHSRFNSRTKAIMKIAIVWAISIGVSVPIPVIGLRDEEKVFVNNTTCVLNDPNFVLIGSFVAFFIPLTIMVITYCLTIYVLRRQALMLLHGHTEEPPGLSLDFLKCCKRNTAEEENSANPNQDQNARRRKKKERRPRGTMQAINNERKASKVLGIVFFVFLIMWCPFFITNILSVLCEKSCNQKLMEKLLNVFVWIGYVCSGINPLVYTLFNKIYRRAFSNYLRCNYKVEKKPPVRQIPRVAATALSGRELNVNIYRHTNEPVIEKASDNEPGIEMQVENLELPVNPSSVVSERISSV

[3] = molecular target: dopamine D2 receptor (Homo sapiens, UniProt P14416); assay: affinity for dopamine D2 receptors; assay type: binding
[4] = molecular target: serotonin 5-HT6 receptor (Homo sapiens, UniProt P50406); assay: antagonist affinity for serotonin 5-HT6 receptor; assay type: binding
[5] = molecular target: dopamine D3 receptor (Homo sapiens, UniProt P35462); assay: affinity for dopamine D3 receptors; assay type: binding
dopamine D3 receptor, sequence (P35462 whole entry, species assumed): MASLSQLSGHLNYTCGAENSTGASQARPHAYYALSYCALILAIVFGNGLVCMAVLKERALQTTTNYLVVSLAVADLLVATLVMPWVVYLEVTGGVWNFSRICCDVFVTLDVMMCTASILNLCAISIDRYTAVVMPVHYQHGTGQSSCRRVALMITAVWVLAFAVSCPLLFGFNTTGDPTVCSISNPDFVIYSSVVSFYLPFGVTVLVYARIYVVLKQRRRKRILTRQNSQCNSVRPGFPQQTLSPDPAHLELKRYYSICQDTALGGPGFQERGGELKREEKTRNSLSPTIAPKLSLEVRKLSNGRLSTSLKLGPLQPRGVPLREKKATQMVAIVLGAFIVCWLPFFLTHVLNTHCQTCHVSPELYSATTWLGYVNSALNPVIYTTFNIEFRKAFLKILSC

dopamine D2 receptor, sequence (P14416 whole entry): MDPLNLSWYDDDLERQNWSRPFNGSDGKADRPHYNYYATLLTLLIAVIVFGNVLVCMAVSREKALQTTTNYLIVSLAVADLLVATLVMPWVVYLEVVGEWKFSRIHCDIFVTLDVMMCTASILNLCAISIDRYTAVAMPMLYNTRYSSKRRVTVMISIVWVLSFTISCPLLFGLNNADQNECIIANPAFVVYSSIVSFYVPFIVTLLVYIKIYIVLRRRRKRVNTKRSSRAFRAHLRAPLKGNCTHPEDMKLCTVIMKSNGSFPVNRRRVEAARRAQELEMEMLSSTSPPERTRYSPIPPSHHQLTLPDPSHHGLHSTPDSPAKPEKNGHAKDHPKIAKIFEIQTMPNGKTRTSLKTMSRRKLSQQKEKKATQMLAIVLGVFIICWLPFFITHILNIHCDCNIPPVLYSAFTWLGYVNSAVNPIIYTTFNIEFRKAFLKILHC
serotonin 5-HT6 receptor, sequence (P50406 whole entry): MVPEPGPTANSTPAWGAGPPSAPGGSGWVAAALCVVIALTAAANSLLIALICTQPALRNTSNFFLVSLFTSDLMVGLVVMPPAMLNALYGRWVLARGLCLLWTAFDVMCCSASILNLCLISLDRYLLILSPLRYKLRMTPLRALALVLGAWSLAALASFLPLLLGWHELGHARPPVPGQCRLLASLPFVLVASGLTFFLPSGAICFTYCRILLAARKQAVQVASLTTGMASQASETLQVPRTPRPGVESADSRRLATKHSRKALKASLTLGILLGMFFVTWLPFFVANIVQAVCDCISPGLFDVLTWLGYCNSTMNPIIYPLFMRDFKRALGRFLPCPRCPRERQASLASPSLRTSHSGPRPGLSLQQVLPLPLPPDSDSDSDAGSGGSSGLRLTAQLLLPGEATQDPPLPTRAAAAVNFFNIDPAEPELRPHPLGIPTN

Compound	stability with respect to hygroscopicity and loss of water [1]	changes when exposed to very high humidity ([1]; very high humidity)	antagonist affinity for serotonin 5-HT2C receptor [2]	affinity for dopamine D2 receptor [3]	antagonist affinity for serotonin 5-HT6 receptor [4]	affinity for dopamine D3 receptor [5]	affinity for dopamine D3 relative to D2 receptors ([5]; D3 versus D2)
COc1cc2c(cc1S(=O)(=O)c1ccc(OCc3ccc(Cl)cc3)cc1)CCN(C)CC2.O=C(O)/C=C\C(=O)O [Form 2 maleate anhydrate, 7-[4-(4-Chlorobenzyloxy)benzenesulfonyl]-8-methoxy-3-methyl-2,3,4,5-tetrahydro-1H-3-benzazepinium Maleate]	particular stability	reversible changes					
COc1cc2c(cc1S(=O)(=O)c1ccc(OCc3ccc(Cl)cc3)cc1)CCN(C)CC2.O=C(O)/C=C\C(=O)O [Form 2 salt, 7-[4-(4-Chlorobenzyloxy)benzenesulfonyl]-8-methoxy-3-methyl-2,3,4,5-tetrahydro-1H-3-benzazepinium maleate]			antagonist affinity	exhibit affinity	antagonist affinity	exhibit affinity	greater affinity for dopamine D3 than for D2 receptors
